Source: ChEMBL document CHEMBL3885861, “Open TG-GATES”

Species: Rattus norvegicus
Test: Open TG-GATES - Regimen: Single
Type: toxicity, organism-based, Sprague-Dawley
Parameters: regimen Single, gender Male, age 6 weeks
Conditions: in vivo, po, 0 mg/kg, route gavage, dose level Control; for APTT / Bas / Eos / Fbg / Hb / Ht / Lym / MCH / MCHC / MCV / Mono / Neu / PT / Plat / RBC / Ret / WBC: tissue Blood; for KIDNEY_L / KIDNEY_R / KIDNEY_TOTAL: tissue Kidney; for LIVER: tissue Liver; for A/G / ALP / ALT / AST / BUN / CRE / Ca / Cl / DBIL / GLC / IP / K / LDH / Na / PL / RALB / TBIL / TC / TG / TP / gamma-GTP: tissue Plasma

In the case of OCCOCCN1CCN(C(c2ccccc2)c2ccc(Cl)cc2)CC1 (configuration not stated) [HYDROXYZINE], the TERMINAL_BW (3 h) is reported as 191.8 g, the APTT (3 h) is reported as 16.4 s and the Bas (3 h) is reported as 0%. It also gave an Eos (3 h) of 0.8%, a Fbg (3 h) of 287 mg/dL and a Hb (3 h) of 13.2 g/dL. It also gave a Ht (3 h) of 41%, a Lym (3 h) of 78% and an MCH (3 h) of 21.5 pg. The MCHC (3 h) was 32.3%, the MCV (3 h) was 66.6 fL and the Mono (3 h) was 3%. The Neu (3 h) was 17.4%, the PT (3 h) was 15.4 s and the Plat (3 h) was 120.7 x10_4/uL. It also gave an RBC (3 h) of 616 x10_4/ul, a Ret (3 h) of 8.7% and a WBC (3 h) of 71.8 x10_2/uL. It also gave a KIDNEY_L (3 h) of 0.9 g, a KIDNEY_R (3 h) of 0.9 g and a KIDNEY_TOTAL (3 h) of 1.7 g. For the same compound, the LIVER (3 h) was 8.6 g, the A/G (3 h) was 0.8 and the ALP (3 h) was 1501.4 IU/L. For the same compound, the ALT (3 h) was 41 IU/L, the AST (3 h) was 73 IU/L and the BUN (3 h) was 9 mg/dL. It also gave a CRE (3 h) of 0.2 mg/dL, a Ca (3 h) of 10.9 mg/dL and a Cl (3 h) of 106 meq/L. It also gave a DBIL (3 h) of 0.012 mg/dL, a GLC (3 h) of 176.8 mg/dL and an IP (3 h) of 9.2 mg/dL. For the same compound, the K (3 h) was 4.2 meq/L, the LDH (3 h) was 61.8 IU/L and the Na (3 h) was 141.8 meq/L. It also gave a PL (3 h) of 138.6 mg/dL, an RALB (3 h) of 2.5 g/dL and a TBIL (3 h) of 0.056 mg/dL. For the same compound, the TC (3 h) was 75.4 mg/dL, the TG (3 h) was 68.8 mg/dL and the TP (3 h) was 5.4 g/dL. For the same compound, the gamma-GTP (3 h) was 1 IU/L, the TERMINAL_BW (6 h) was 194.9 g and the APTT (6 h) was 16.3 s. The Bas (6 h) was 0%, the Eos (6 h) was 0.4% and the Fbg (6 h) was 298.6 mg/dL. The Hb (6 h) was 13.1 g/dL, the Ht (6 h) was 40.8% and the Lym (6 h) was 76.2%. It also gave an MCH (6 h) of 21.7 pg, an MCHC (6 h) of 32.1% and an MCV (6 h) of 67.5 fL. It also gave a Mono (6 h) of 2.4%, a Neu (6 h) of 20.4% and a PT (6 h) of 15.3 s. It also gave a Plat (6 h) of 116.6 x10_4/uL, an RBC (6 h) of 604 x10_4/ul and a Ret (6 h) of 9%. It also gave a WBC (6 h) of 60.3 x10_2/uL, a KIDNEY_L (6 h) of 0.9 g and a KIDNEY_R (6 h) of 0.9 g. The KIDNEY_TOTAL (6 h) was 1.8 g, the LIVER (6 h) was 8.5 g and the A/G (6 h) was 0.9. The ALP (6 h) was 1502.2 IU/L, the ALT (6 h) was 36.4 IU/L and the AST (6 h) was 68.8 IU/L. It also gave a BUN (6 h) of 9.2 mg/dL, a CRE (6 h) of 0.2 mg/dL and a Ca (6 h) of 10.9 mg/dL. It also gave a Cl (6 h) of 105.2 meq/L, a DBIL (6 h) of 0.012 mg/dL and a GLC (6 h) of 183.6 mg/dL. The IP (6 h) was 9.9 mg/dL, the K (6 h) was 4.2 meq/L and the LDH (6 h) was 56.2 IU/L. The Na (6 h) was 141.6 meq/L, the PL (6 h) was 147.6 mg/dL and the RALB (6 h) was 2.5 g/dL. The TBIL (6 h) was 0.058 mg/dL, the TC (6 h) was 81.4 mg/dL and the TG (6 h) was 52.6 mg/dL. The TP (6 h) was 5.3 g/dL, the gamma-GTP (6 h) was 0.8 IU/L and the TERMINAL_BW (9 h) was 191 g. For the same compound, the APTT (9 h) was 16.5 s, the Bas (9 h) was 0% and the Eos (9 h) was 0.8%. The Fbg (9 h) was 260.4 mg/dL, the Hb (9 h) was 12.9 g/dL and the Ht (9 h) was 39.9%. The Lym (9 h) was 73.4%, the MCH (9 h) was 20.5 pg and the MCHC (9 h) was 32.4%. For the same compound, the MCV (9 h) was 63.5 fL, the Mono (9 h) was 2.6% and the Neu (9 h) was 22.4%. It also gave a PT (9 h) of 15.2 s, a Plat (9 h) of 110.7 x10_4/uL and an RBC (9 h) of 631.2 x10_4/ul. For the same compound, the Ret (9 h) was 8.2%, the WBC (9 h) was 82.7 x10_2/uL and the KIDNEY_L (9 h) was 0.9 g. For the same compound, the KIDNEY_R (9 h) was 0.9 g, the KIDNEY_TOTAL (9 h) was 1.8 g and the LIVER (9 h) was 7.9 g. The A/G (9 h) was 0.9, the ALP (9 h) was 1265.6 IU/L and the ALT (9 h) was 38 IU/L. It also gave an AST (9 h) of 75 IU/L, a BUN (9 h) of 9.4 mg/dL and a CRE (9 h) of 0.1 mg/dL. The Ca (9 h) was 10.6 mg/dL, the Cl (9 h) was 105.4 meq/L and the DBIL (9 h) was 0.012 mg/dL. For the same compound, the GLC (9 h) was 176.2 mg/dL, the IP (9 h) was 10.1 mg/dL and the K (9 h) was 4.2 meq/L. The LDH (9 h) was 55.4 IU/L, the Na (9 h) was 142 meq/L and the PL (9 h) was 129.4 mg/dL. The RALB (9 h) was 2.5 g/dL, the TBIL (9 h) was 0.068 mg/dL and the TC (9 h) was 76.8 mg/dL. For the same compound, the TG (9 h) was 21 mg/dL, the TP (9 h) was 5.4 g/dL and the gamma-GTP (9 h) was 1 IU/L. For the same compound, the TERMINAL_BW (24 h) was 204.1 g, the APTT (24 h) was 15.6 s and the Bas (24 h) was 0.2%. For the same compound, the Eos (24 h) was 0.8%, the Fbg (24 h) was 275.8 mg/dL and the Hb (24 h) was 13.1 g/dL. It also gave a Ht (24 h) of 40.4%, a Lym (24 h) of 80.2% and an MCH (24 h) of 21.6 pg. The MCHC (24 h) was 32.6%, the MCV (24 h) was 66.3 fL and the Mono (24 h) was 2.6%. It also gave a Neu (24 h) of 15.8%, a PT (24 h) of 16 s and a Plat (24 h) of 114.8 x10_4/uL. For the same compound, the RBC (24 h) was 609.2 x10_4/ul, the Ret (24 h) was 7.1% and the WBC (24 h) was 63.9 x10_2/uL. It also gave a KIDNEY_L (24 h) of 0.9 g, a KIDNEY_R (24 h) of 0.9 g and a KIDNEY_TOTAL (24 h) of 1.8 g. The LIVER (24 h) was 9.3 g, the A/G (24 h) was 0.9 and the ALP (24 h) was 1738.8 IU/L. It also gave an ALT (24 h) of 43.4 IU/L, an AST (24 h) of 71 IU/L and a BUN (24 h) of 14.8 mg/dL. The CRE (24 h) was 0.1 mg/dL, the Ca (24 h) was 11.2 mg/dL and the Cl (24 h) was 106.6 meq/L. The DBIL (24 h) was 0.014 mg/dL, the GLC (24 h) was 176.8 mg/dL and the IP (24 h) was 7.6 mg/dL. The K (24 h) was 4.5 meq/L, the LDH (24 h) was 64.4 IU/L and the Na (24 h) was 141.4 meq/L. It also gave a PL (24 h) of 147.8 mg/dL, an RALB (24 h) of 2.6 g/dL and a TBIL (24 h) of 0.056 mg/dL. For the same compound, the TC (24 h) was 75.2 mg/dL, the TG (24 h) was 75.4 mg/dL and the TP (24 h) was 5.7 g/dL. For the same compound, the gamma-GTP (24 h) was 0.8 IU/L.
